Paper PMC6895203, “Conformational pathway provides unique sensitivity to a synaptic mGluR” (Nature Communications, 2019)
Values joined by “and” are separate entries in the source; they are usually repeats but may differ in a detail not shown here. Equal entries are not always repeated. “Also recorded” adds a separate entry of the source. Each block holds one compound with its values, some of them ahead of it.

Legend:
[1] = molecular target: SNAP-mGluR2/SNAP-mGluR2 homodimer (mGluR2/2) (Rattus norvegicus, UniProt P31421); assay: smFRET on isolated immune-purified SNAP-mGluR2/2 dimers; settings: 10 nM DCG-IV
Description: (§3) Receptors expressed in HEK293T cells were labeled with a mixture of SNAP-reactive donor and acceptor fluorophores, detergent solubilized, immune-purified and tethered by biotinylated secondary antibodies at low density to coverslips that were passivated with a lawn of polyethylene glycol[13]. We used single-molecule FRET (smFRET) in order to measure the absolute FRET levels and dynamic changes associated with ligand-induced conformational changes in the LBDs. We imaged the donor and acceptor dyes using total internal reflection fluorescence (TIRF) microscopy[13],[31]

[2] = molecular target: T1, SNAP-mGluR2(F756D)/mGluR7 heterodimer (Rattus norvegicus, UniProt P31421+P35400, F756D); assay: Whole-cell patch clamp of GIRK1 current, trans-activation in SNAP-mGluR2(F756D)/mGluR7; format: cell-based
T1 construct: HA (N); expressed in transfected cells; host or cells: HEK293 / HEK293T
Text: We explored this further by examining trans-activation, whereby binding of ligand to one subunit activates G-protein interaction in the partner subunit[46],[47]. To specifically activate only the mGluR2 subunit of the mGluR2/7 heterodimer, we selectively attached a photoswitched tethered ligand to mGluR2. […] SNAP-mGluR2(F756D) was co-expressed with wild-type mGluR7 along with the GIRK1 channel.
(§1) Illumination was applied to the entire field of view using either a Polychrome V monochromator (TILL Photonics) through a 20× objective, or a Lambda DG4 high-speed wavelength switcher (Sutter Instruments) with 380 nm and 500 nm filters through a 40× objective. pClamp software was used for both data acquisition and control of illumination.

[3] = molecular target: CLIP-mGluR2/SNAP-mGluR7 heterodimer (mGluR2/7) (Rattus norvegicus, UniProt P31421+P35400); assay: smFRET on isolated CLIP-mGluR2/SNAP-mGluR7 heterodimers; settings: for effect on smFRET distribution: 0 glutamate, combination of mGluR2 NAM (11 µM Ro 64-5229 or 1.2 µM MNI-137) with mGluR7 NAM ([…] ADX 71743)
[4] = molecular target: T2, SNAP-mGluR2(F756D) (Rattus norvegicus, UniProt P31421, F756D); assay: Whole-cell patch clamp of GIRK1 current, SNAP-mGluR2(F756D) expressed alone; format: cell-based; settings: BGAG12 labeled, 380 nm
T2 construct: HA (N); expressed in transfected cells; host or cells: HEK293 / HEK293T
Text: We explored this further by examining trans-activation, whereby binding of ligand to one subunit activates G-protein interaction in the partner subunit[46],[47]. To specifically activate only the mGluR2 subunit of the mGluR2/7 heterodimer, we selectively attached a photoswitched tethered ligand to mGluR2.
as §1

[5] = molecular target: SNAP-mGluR7/SNAP-mGluR7 homodimer (mGluR7/7) (Rattus norvegicus, UniProt P35400); assay: smFRET on isolated immune-purified SNAP-mGluR7/7 dimers
Description: as §3

[6] = molecular target: T3, CLIP-mGluR2/SNAP-mGluR7(K319C) heterodimer (Rattus norvegicus, UniProt P31421+P35400, K319C); assay: smFRET on CLIP-mGluR2/SNAP-mGluR7(K319C) heterodimers with D-MAG-0 on mGluR7; format: biochemical; settings: trans D-MAG-0 only on the mGluR7 subunit
T3 construct: Flag (N); HA (N); made in house; host or cells: HEK293T
Text: as §1
(§2) (100 ms time resolution).

[7] = molecular target: T4, SNAP-mGluR7(K319C) homodimer (Rattus norvegicus, UniProt P35400, K319C); assay: smFRET on SNAP-mGluR7(K319C) homodimers conjugated to D-MAG-0; format: biochemical
T4 construct: HA (N); made in house; host or cells: HEK293T
Description: as §1, with “smFRET was performed on purified SNAP-mGluR7(K319C) homodimers that were labeled with donor and acceptor dyes on the SNAP and D-MAG-0 on K319C in the D-MAG-0 activated state. […] Illumination” for “Illumination”
as §2

SNAP-mGluR7/SNAP-mGluR7 homodimer (mGluR7/7), sequence (P35400 35-915): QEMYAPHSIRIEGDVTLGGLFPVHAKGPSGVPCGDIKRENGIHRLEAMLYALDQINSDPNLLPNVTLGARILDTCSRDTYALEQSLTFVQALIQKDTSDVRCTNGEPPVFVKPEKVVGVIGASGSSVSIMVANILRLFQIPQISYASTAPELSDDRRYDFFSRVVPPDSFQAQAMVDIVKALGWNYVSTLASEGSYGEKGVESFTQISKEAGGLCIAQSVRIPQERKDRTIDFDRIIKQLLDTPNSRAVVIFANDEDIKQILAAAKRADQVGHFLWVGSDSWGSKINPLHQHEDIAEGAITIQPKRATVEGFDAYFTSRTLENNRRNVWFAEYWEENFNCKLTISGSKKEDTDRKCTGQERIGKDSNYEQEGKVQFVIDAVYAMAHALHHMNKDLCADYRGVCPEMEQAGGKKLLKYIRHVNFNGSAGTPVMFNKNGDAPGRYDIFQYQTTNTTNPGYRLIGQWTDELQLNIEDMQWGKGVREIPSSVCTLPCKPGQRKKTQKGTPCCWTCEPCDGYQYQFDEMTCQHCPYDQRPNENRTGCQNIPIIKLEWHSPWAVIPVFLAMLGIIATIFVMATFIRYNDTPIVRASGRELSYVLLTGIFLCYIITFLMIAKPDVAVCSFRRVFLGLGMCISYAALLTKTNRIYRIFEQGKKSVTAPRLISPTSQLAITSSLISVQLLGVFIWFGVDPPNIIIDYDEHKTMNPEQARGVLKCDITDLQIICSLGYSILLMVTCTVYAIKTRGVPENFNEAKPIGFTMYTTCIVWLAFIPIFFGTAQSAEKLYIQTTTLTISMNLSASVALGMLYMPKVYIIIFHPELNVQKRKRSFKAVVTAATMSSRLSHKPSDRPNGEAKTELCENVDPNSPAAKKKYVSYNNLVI
T1 sequence (P31421 19-872 F756D): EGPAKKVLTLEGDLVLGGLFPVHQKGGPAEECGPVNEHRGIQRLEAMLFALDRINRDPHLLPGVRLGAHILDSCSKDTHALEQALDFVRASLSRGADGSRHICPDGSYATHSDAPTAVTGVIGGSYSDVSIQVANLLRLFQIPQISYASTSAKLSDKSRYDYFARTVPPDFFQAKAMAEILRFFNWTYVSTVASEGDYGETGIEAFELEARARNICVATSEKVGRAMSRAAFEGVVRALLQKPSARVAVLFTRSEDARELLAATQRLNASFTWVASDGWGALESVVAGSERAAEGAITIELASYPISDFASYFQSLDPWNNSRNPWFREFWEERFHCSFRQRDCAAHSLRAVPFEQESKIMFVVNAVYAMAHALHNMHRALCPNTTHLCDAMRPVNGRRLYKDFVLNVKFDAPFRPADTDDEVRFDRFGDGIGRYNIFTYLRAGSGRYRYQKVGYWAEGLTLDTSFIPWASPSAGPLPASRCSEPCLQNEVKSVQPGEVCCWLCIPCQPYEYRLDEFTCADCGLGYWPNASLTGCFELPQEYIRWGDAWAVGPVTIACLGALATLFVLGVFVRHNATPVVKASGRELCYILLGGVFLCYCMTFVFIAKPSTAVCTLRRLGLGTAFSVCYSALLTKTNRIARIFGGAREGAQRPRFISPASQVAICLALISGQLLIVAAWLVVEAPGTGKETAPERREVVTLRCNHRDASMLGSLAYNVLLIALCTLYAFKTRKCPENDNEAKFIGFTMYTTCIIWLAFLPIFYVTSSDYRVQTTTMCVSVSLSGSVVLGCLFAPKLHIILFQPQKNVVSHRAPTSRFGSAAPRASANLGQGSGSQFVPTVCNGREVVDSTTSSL
T1 sequence (P35400 35-915): as the sequence (P35400 35-915) above
CLIP-mGluR2/SNAP-mGluR7 heterodimer (mGluR2/7), sequence (P31421 19-872): as the sequence (P31421 19-872 F756D) above, with D738F counted along it
CLIP-mGluR2/SNAP-mGluR7 heterodimer (mGluR2/7), sequence (P35400 35-915): as the sequence (P35400 35-915) above
T4 sequence (P35400 35-915 K319C): as the sequence (P35400 35-915) above, with K285C counted along it
T2 sequence (P31421 19-872 F756D): as the sequence (P31421 19-872 F756D) above
SNAP-mGluR2/SNAP-mGluR2 homodimer (mGluR2/2), sequence (P31421 19-872): as the sequence (P31421 19-872 F756D) above, with D738F counted along it
T3 sequence (P31421 19-872): as the sequence (P31421 19-872 F756D) above, with D738F counted along it
T3 sequence (P35400 35-915 K319C): as the sequence (P35400 35-915) above, with K285C counted along it

occupancy of the activated conformation [1]: ~ 5%
Norm. (1 nM DCG-IV), Over 20% Photo ([2]; 1 nM DCG-IV, summary of cells Over 20% Photo): 0.04748
Norm. (1 nM DCG-IV), Under 15% Photo ([2]; 1 nM DCG-IV, summary of cells Under 15% Photo): 0.01667
Norm. (10 nM DCG-IV), Over 20% Photo ([2]; 10 nM DCG-IV, summary of cells Over 20% Photo): 0.2749
Norm. (10 nM DCG-IV), Under 15% Photo ([2]; 10 nM DCG-IV, summary of cells Under 15% Photo): 0.22
Norm. (100 nM DCG-IV), Over 20% Photo ([2]; 100 nM DCG-IV, summary of cells Over 20% Photo): 0.5816
Norm. (100 nM DCG-IV), Under 15% Photo ([2]; 100 nM DCG-IV, summary of cells Under 15% Photo): 0.3011
Norm. (1 uM DCG-IV) ([2]; 1 uM DCG-IV normalised to 1 mM Glu, single cells): 0.9403 and 0.9452 and 0.7554 and 0.9507
Norm. (1 uM DCG-IV), Over 20% Photo ([2]; 1 uM DCG-IV, summary of cells Over 20% Photo): 0.9454
Norm. (1 uM DCG-IV), Under 15% Photo ([2]; 1 uM DCG-IV, summary of cells Under 15% Photo): 0.7554
Norm. (10 uM DCG-IV) ([2]; 10 uM DCG-IV normalised to 1 mM Glu, single cells): 1
Current, 10 uM DCG-IV ([2]; 10 uM DCG-IV, single cells): -498.53
Norm. (10 uM DCG-IV), Over 20% Photo ([2]; 10 uM DCG-IV, summary of cells Over 20% Photo): 1
activated conformation occupancy, fold greater than mGluR2/2 ([3]; 10 nM DCG-IV): ~ 5 fold
occupancy of the activated conformation ([3]; 10 nM DCG-IV): ~ 25%
Compound: N[C@H](C(=O)O)C1[C@@H](C(=O)O)[C@@H]1C(=O)O (some centres unmarked) [DCG-IV]
DCG-IV GIRK concentration-response relation compared to mGluR2/2 ([2]; patch clamp, foot of the relation): left-shifted; also recorded: more sensitive

Compound: MNI-137
effect on smFRET distribution [3]: narrowed the smFRET distribution and shifted it to the right

Compound: CCc1nc2c(o1)CC(c1ccc(C)cc1C)CC2=O (centres unmarked) [ADX71743]
effect on smFRET distribution [3]: narrowed the smFRET distribution and shifted it to the right

Compound: Nc1nc(OCc2ccc(CNC(=O)CCc3cn(CCOCCOCCOCCOCCOCCOCCOCCOCCOCCOCCOCCOCCC(=O)NCC(=O)Nc4ccc(/N=N/c5ccc(NC(=O)CCC[C@@H](C[C@H](N)C(=O)O)C(=O)O)cc5)cc4)nn3)cc2)c2nc[nH]c2n1 [BGAG12, benzylguanine azobenzene glutamate]
photocurrent [4]: no photocurrent

Compound: Clc1cccc(Cl)c1/C(=C/n1cncn1)OC1CCCCCC1 [Ro 64-5229]
effect on smFRET distribution [3]: narrowed the smFRET distribution and shifted it to the right

normalized low FRET area (Supplemental Figure 2a), mGluR7 LSP4 ([5]; agonist 0.003 (M)): 1
normalized low FRET area (Supplemental Figure 2a), mGluR7 LSP4 ([5]; agonist 1.00E-03 (M)): 0.8692
normalized low FRET area (Supplemental Figure 2a), mGluR7 LSP4 ([5]; agonist 1.00E-06 (M)): 0.03798
normalized low FRET area (Supplemental Figure 2a), mGluR7 LSP4 ([5]; agonist 1.00E-07 (M)): 0.02088
normalized low FRET area (Supplemental Figure 2a), mGluR7 LSP4 ([5]; agonist 2.00E-05 (M)): 0.3163
receptor occupancy at 1000 µM ([5]; read-out: occupancy of the activated conformation): > 50%
receptor occupancy at 3000 µM ([5]; read-out: occupancy of the low FRET conformation): ~65%
efficacy, fold greater than that of glutamate ([5]; smFRET): at least 6 fold
activation ([3]; 1 mM LSP4-2022): almost complete
apparent affinity of mGluR7 subunit, fold higher than when partnered with another mGluR7 ([3]; smFRET): approximately 1000 fold
Compound: N[C@@H](CCP(=O)(O)C(O)c1ccc(OCC(=O)O)cc1)C(=O)O (some centres unmarked) [LSP4-2022]
smFRET traces ([5]; 20 μM LSP4-2022): frequent transitions to the low FRET activated conformation
shift of smFRET distribution ([3]; 1 µM LSP4-2022): slightly more than half-way toward the activated low FRET state

Compound: NC(CC(CCC(=O)Nc1ccc(N=Nc2ccc(NC(=O)CN3C(=O)C=CC3=O)cc2)cc1)C(=O)O)C(=O)O (mixture of isomers) [D-MAG-0, maleimide-azobenzene-glutamate]
time in the activated low-FRET state [6]: ~ 90%
stabilization of activated conformation, fold more effective than saturating free glutamate ([7]; trans D-MAG-0): approximately 5 fold
occupancy of the activated low FRET state ([7]; trans D-MAG-0 on both subunits): ~ 50%
